From ChEMBL document CHEMBL6109103, “Dodecapeptides derived from human cathelicidin with potent activity against carbapenem-resistant Acinetobacter baumannii” (Eur J Med Chem, 2025)
In brackets after ≈: the same amount, converted by molar mass. Activity calls are given as the source filed them. The rule behind the calls is not given here. Positions of bridges follow the written chain, without caps; N, C: chain ends. Non-standard residues stand in square brackets, D forms with d. Residues, ends and D or L forms follow the SMILES beside them. S5 = C=CCCC[C@](C)(N)C(=O)O

How the values were obtained:
Acinetobacter baumannii [1] = assay: Antibacterial activity against multidrug-resistant Acinetobacter baumannii assessed as inhibition of bacterial growth incubated for 24 hrs by broth dilution assay; assay type: functional
Lipoteichoic acid = assay: Binding affinity to […] bacterial Lipoteichoic acid assessed as dissociation constant by BLI analysis; design: species or system Bacteria
[2] = Toxicity in BALB/c mouse assessed as animal survival at 4 to 64 mg/kg, ip measured for 5 days; assay type: organism-based; conditions: in vivo, 120 h, dose 4-64 mg/kg, time 5 day
Acinetobacter baumannii [3] = assay: Synergistic antibacterial activity against carbapenem-resistant Acinetobacter baumannii clinical isolate 6 in presence of CTX by microdilution checkerboard assay; assay type: functional, organism-based
HaCaT = assay: Cytotoxicity against human HaCaT cells assessed as cell death up to 100 microg/ml measured upto 24 hrs; assay type: toxicity, cell-based; conditions: dose < 100 µg/ml
[4] = Toxicity in BALB/c mouse assessed as kidney damage at 64 mg/kg, ip measured for 3 days by H and E staining based analysis; assay type: organism-based; conditions: in vivo, 72 h, time 3 day
[5] = Toxicity in BALB/c mouse assessed as liver damage at 64 mg/kg, ip measured for 3 days by H and E staining based analysis; assay type: organism-based; conditions: in vivo, 72 h, time 3 day
Acinetobacter baumannii [6] = assay: Induction of morphological changes in carbapenem-resistant Acinetobacter baumannii at 6.25 microg/ml measured for 24 hrs by SEM analysis; assay type: functional, organism-based; conditions: dose 6.25 µg/ml
[7] = Toxicity in BALB/c mouse assessed as animal survival at 1.25 mg/kg, NAS measured for 5 days; assay type: organism-based; conditions: in vivo, inhaled or intranasal, time 5 day
Acinetobacter baumannii [8] = assay: Synergistic antibacterial activity against carbapenem-resistant Acinetobacter baumannii clinical isolate 6 in presence of tetracycline by microdilution checkerboard assay; assay type: functional, organism-based
Acinetobacter baumannii [9] = assay: Antibacterial activity against carbapenem-resistant Acinetobacter baumannii clinical isolate 4 assessed as inhibition of bacterial growth incubated for 24 hrs by broth dilution assay; assay type: functional
Acinetobacter baumannii [10] = assay: Antibacterial activity against Acinetobacter baumannii ATCC 19606 assessed as inhibition of bacterial growth incubated for 24 hrs by broth dilution assay; assay type: functional
proteinase K [11] = assay: Proteolytic stability assessed as proteinase K (unknown origin)-mediated drug degradation at 500 microg/ml measured for 20 mins by LC-MS analysis; assay type: ADME, Homo sapiens; conditions: at 500 µg/mL, read-out: Drug degradation
Acinetobacter baumannii [12] = assay: Antibacterial activity against carbapenem-resistant Acinetobacter baumannii clinical isolate 6 assessed as inhibition of bacterial growth incubated for 24 hrs by broth dilution assay; assay type: functional
[13] = Toxicity in BALB/c mouse assessed as lung damage at 64 mg/kg, ip measured for 3 days by H and E staining based analysis; assay type: organism-based; conditions: in vivo, 72 h, time 3 day
Staphylococcus aureus [14] = assay: Antibacterial activity against Staphylococcus aureus […] assessed as inhibition of bacterial growth incubated for 24 hrs by broth dilution assay; assay type: functional
[15] = Binding affinity to gram negative bacterial lipid II assessed as dissociation constant by BLI analysis; design: species or system Bacteria
Acinetobacter baumannii [16] = assay: Antibacterial activity against carbapenem-resistant Acinetobacter baumannii clinical isolate 8 assessed as inhibition of bacterial growth incubated for 24 hrs by broth dilution assay; assay type: functional
Staphylococcus aureus [17] = assay: Antibacterial activity against Methicillin-resistant Staphylococcus aureus ATCC 43300 assessed as inhibition of bacterial growth incubated for 24 hrs by broth dilution assay; assay type: functional
Pseudomonas aeruginosa = assay: Antibacterial activity against human Pseudomonas aeruginosa assessed as inhibition of bacterial growth; assay type: functional, organism-based
[18] = Toxicity in BALB/c mouse assessed as spleen damage at 64 mg/kg, ip measured for 3 days by H and E staining based analysis; assay type: organism-based; conditions: in vivo, 72 h, time 3 day
Acinetobacter baumannii [19] = assay: Antibacterial activity against carbapenem-resistant Acinetobacter baumannii clinical isolate 1 assessed as inhibition of bacterial growth incubated for 24 hrs by broth dilution assay; assay type: functional
Escherichia coli = assay: Antibacterial activity against human Escherichia coli assessed as inhibition of bacterial growth; assay type: functional, organism-based
Acinetobacter baumannii [20] = assay: Antibacterial activity against carbapenem-resistant Acinetobacter baumannii clinical isolate 7 assessed as inhibition of bacterial growth incubated for 24 hrs by broth dilution assay; assay type: functional
[21] = Hemolytic activity at mouse RBC assessed as hemolysis; assay type: toxicity, cell-based, Erythrocyte; conditions: mouse red blood cells, read-out: Activity
Acinetobacter baumannii [22] = assay: Antibacterial activity against carbapenem-resistant Acinetobacter baumannii clinical isolate 2 assessed as inhibition of bacterial growth incubated for 24 hrs by broth dilution assay; assay type: functional
Acinetobacter baumannii [23] = assay: Antibacterial activity against carbapenem-resistant Acinetobacter baumannii clinical isolate 3 assessed as inhibition of bacterial growth incubated for 24 hrs by broth dilution assay; assay type: functional
Acinetobacter baumannii [24] = assay: Antibacterial activity against carbapenem-resistant Acinetobacter baumannii clinical isolate 6 infected in BALB/c mouse assessed as survival rate at 1.25 mg/kg, NAS administered once a day for 3 days; assay type: functional; conditions: 72 h, time 3 day
[25] = Toxicity in BALB/c mouse assessed as heart damage at 64 mg/kg, ip measured for 3 days by H and E staining based analysis; assay type: organism-based; conditions: in vivo, 72 h, time 3 day
Acinetobacter baumannii [26] = assay: Antibacterial activity against carbapenem-resistant Acinetobacter baumannii clinical isolate 5 assessed as inhibition of bacterial growth incubated for 24 hrs by broth dilution assay; assay type: functional
HUVEC = assay: Cytotoxicity against HUVEC cells assessed as cell death up to 50 microg/ml measured up to 24 hrs; assay type: toxicity, cell-based; conditions: human, up to 50 µg/mL
A549 = assay: Cytotoxicity against human A549 cells assessed as cell death up to 50 microg/ml measured up to 24 hrs; assay type: toxicity, cell-based; conditions: a549, 24 h, up to 50 µg/mL
Acinetobacter baumannii [27] = assay: Antibacterial activity against carbapenem-resistant Acinetobacter baumannii clinical isolate 6 assessed as bacterial killing at 3.16 microg/ml measured for 1 hr in presence of NaCl; assay type: functional, organism-based; conditions: dose 3.16 µg/ml
Acinetobacter baumannii [28] = assay: Antibacterial activity against carbapenem-resistant Acinetobacter baumannii clinical isolate 6 assessed as bacterial killing at 3.16 microg/ml measured within 10 mins relative to control; assay type: functional; conditions: dose 3.16 µg/ml
Acinetobacter baumannii [29] = assay: Antibacterial activity against carbapenem-resistant Acinetobacter baumannii clinical isolate 6 assessed as bacterial killing at 3.16 microg/ml measured for 10 to 30 mins in presence of mouse serum; assay type: functional, organism-based; conditions: dose 3.16 µg/ml, time 10-30 min
Cell membrane [30] = assay: Induction of outer membrane permeabilization in carbapenem-resistant Acinetobacter baumannii clinical isolate 6 at 6.25 to 12.5 microg/ml measured for 1 hr by NPN-dye based assay; conditions: dose 6.25-12.5 µg/ml
Acinetobacter baumannii [31] = assay: Antibacterial activity against carbapenem-resistant Acinetobacter baumannii clinical isolate 6 assessed as bacterial killing at 3.16 microg/ml measured within 10 mins; assay type: functional, organism-based; conditions: dose 3.16 µg/ml
proteinase K [32] = assay: Proteolytic stability assessed as proteinase K (unknown origin)-mediated drug degradation measured for 20 mins by LC-MS analysis; assay type: ADME, Homo sapiens; conditions: read-out: Drug degradation
Cell membrane [33] = assay: Induction of inner membrane permeabilization in carbapenem-resistant Acinetobacter baumannii clinical isolate 6 at 6.25 microg/ml measured for 1 hr by NPN-dye based assay; conditions: dose 6.25 µg/ml

CC[C@H](C)[C@H](NC(=O)[C@H](CCCNC(=N)N)NC(=O)[C@@H](N)CCCCN)C(=O)N[C@@]1(C)CCC/C=C\CCC[C@@](C)(C(=O)N[C@H](C(=O)N[C@@H](Cc2ccccc2)C(=O)N[C@@H](CC(C)C)C(=O)N[C@@H](CCCNC(=N)N)C(=O)O)[C@@H](C)CC)NC(=O)[C@H]([C@@H](C)CC)NC(=O)[C@H](CCCNC(=N)N)NC(=O)[C@H](CCCNC(=N)N)NC1=O (H-KRI[S5]RRI[S5]IFLR-OH; staple (Z) 4-8)
MIC (Acinetobacter baumannii [1]): 5 µg/mL (≈ 3.08 µM)
Kd (Lipoteichoic acid): 0.0489 µM
Activity [2]: Non-toxic
Activity (Acinetobacter baumannii [3]): Active
Activity (HaCaT): Non-toxic
Activity [4]: Non-toxic
Activity [5]: Non-toxic
Activity (Acinetobacter baumannii [6]): Active
survival at 120 h [7]: 70%
Activity (Acinetobacter baumannii [8]): Active
MIC (Acinetobacter baumannii [9]): 10 µg/mL (≈ 6.17 µM)
MIC (Acinetobacter baumannii [10]): 5 µg/mL (≈ 3.08 µM)
metabolised at 20 min, 500 microg/ml (proteinase K [11]): 17.8%
MIC (Acinetobacter baumannii [12]): 2.5 µg/mL (≈ 1.54 µM)
Activity [13]: Non-toxic
MIC (Staphylococcus aureus [14]): 80 µg/mL (≈ 49.3 µM)
Kd [15]: 0.0059 µM
MIC (Acinetobacter baumannii [16]): 5 µg/mL (≈ 3.08 µM)
MIC (Staphylococcus aureus [17]): 80 µg/mL (≈ 49.3 µM)
Activity (Pseudomonas aeruginosa): Active
Activity [18]: Non-toxic
MIC (Acinetobacter baumannii [19]): 5 µg/mL (≈ 3.08 µM)
Activity (Escherichia coli): Active
MIC (Acinetobacter baumannii [20]): 20 µg/mL (≈ 12.3 µM)
hemolysis [21]: < 1%
MIC (Acinetobacter baumannii [22]): 10 µg/mL (≈ 6.17 µM)
MIC (Acinetobacter baumannii [23]): 5 µg/mL (≈ 3.08 µM)
survival at 1.25 mg/kg (Acinetobacter baumannii [24]): 50%
Activity [25]: Non-toxic
MIC (Acinetobacter baumannii [26]): 5 µg/mL (≈ 3.08 µM)

CC[C@H](C)[C@H](NC(=O)[C@H](CCCCN)NC(=O)[C@H](CCC(=O)O)NC(=O)[C@H](CCCCN)NC(=O)[C@H](CO)NC(=O)[C@H](CCCCN)NC(=O)[C@H](CCCNC(=N)N)NC(=O)[C@H](Cc1ccccc1)NC(=O)[C@H](Cc1ccccc1)NC(=O)[C@H](CC(=O)O)NC(=O)CNC(=O)[C@H](CC(C)C)NC(=O)[C@@H](N)CC(C)C)C(=O)NCC(=O)N[C@@H](CCCCN)C(=O)N[C@@H](CCC(=O)O)C(=O)N[C@@H](Cc1ccccc1)C(=O)N[C@@H](CCCCN)C(=O)N[C@@H](CCCNC(=N)N)C(=O)N[C@H](C(=O)N[C@H](C(=O)N[C@@H](CCC(N)=O)C(=O)N[C@@H](CCCNC(=N)N)C(=O)N[C@H](C(=O)N[C@@H](CCCCN)C(=O)N[C@@H](CC(=O)O)C(=O)N[C@@H](Cc1ccccc1)C(=O)N[C@@H](CC(C)C)C(=O)N[C@@H](CCCNC(=N)N)C(=O)N[C@@H](CC(N)=O)C(=O)N[C@@H](CC(C)C)C(=O)N[C@H](C(=O)N1CCC[C@H]1C(=O)N[C@@H](CCCNC(=N)N)C(=O)N[C@H](C(=O)N[C@@H](CCC(=O)O)C(=O)N[C@@H](CO)C(=O)O)[C@@H](C)O)C(C)C)[C@@H](C)CC)C(C)C)[C@@H](C)CC [CATHELICIDIN]
MIC (Acinetobacter baumannii [1]): 10 µg/mL (≈ 2.23 µM)
Activity (HUVEC): 29%
MIC (Acinetobacter baumannii [10]): 40 µg/mL (≈ 8.9 µM)
MIC (Staphylococcus aureus [14]): > 320 µg/mL
MIC (Staphylococcus aureus [17]): 320 µg/mL (≈ 71.2 µM)
Activity (A549): 29%

H-KRIVQRIKDFLR-OH
MIC (Acinetobacter baumannii [1]): 160 µg/mL
Kd (Lipoteichoic acid): 0.241 µM
Activity (HaCaT): Non-toxic
Activity (Acinetobacter baumannii [27]): inactive
Activity (Acinetobacter baumannii [28]): 19.5%
MIC (Acinetobacter baumannii [9]): 160 µg/mL
MIC (Acinetobacter baumannii [10]): > 320 µg/mL
MIC (Acinetobacter baumannii [12]): 160 µg/mL
MIC (Staphylococcus aureus [14]): > 320 µg/mL
Kd [15]: 0.171 µM
MIC (Acinetobacter baumannii [16]): 160 µg/mL
MIC (Staphylococcus aureus [17]): > 320 µg/mL
MIC (Acinetobacter baumannii [19]): 320 µg/mL
MIC (Acinetobacter baumannii [20]): 160 µg/mL
MIC (Acinetobacter baumannii [22]): 320 µg/mL
MIC (Acinetobacter baumannii [23]): 320 µg/mL
MIC (Acinetobacter baumannii [26]): 160 µg/mL

H-KRIVRRIKIFLR-OH
MIC (Acinetobacter baumannii [1]): 5 µg/mL
Kd (Lipoteichoic acid): 0.0483 µM
Activity [2]: Non-toxic
Activity (Acinetobacter baumannii [3]): Active
Activity (HaCaT): Non-toxic
Activity [4]: Non-toxic
Activity (Acinetobacter baumannii [29]): Active
Activity [5]: Non-toxic
Activity (Cell membrane [30]): Active
Activity (Acinetobacter baumannii [27]): Active
Activity (Acinetobacter baumannii [6]): Active
survival at 120 h [7]: 30%
Activity (Acinetobacter baumannii [8]): Active
MIC (Acinetobacter baumannii [9]): 5 µg/mL
MIC (Acinetobacter baumannii [10]): 10 µg/mL
MIC (Acinetobacter baumannii [12]): 2.5 µg/mL
Activity [13]: Non-toxic
MIC (Staphylococcus aureus [14]): 80 µg/mL
Kd [15]: 0.00714 µM
MIC (Acinetobacter baumannii [16]): 10 µg/mL
MIC (Staphylococcus aureus [17]): 80 µg/mL
Activity (Acinetobacter baumannii [31]): Active
Activity (Pseudomonas aeruginosa): Active
Activity [18]: Non-toxic
MIC (Acinetobacter baumannii [19]): 10 µg/mL
Activity (Escherichia coli): Active
MIC (Acinetobacter baumannii [20]): 10 µg/mL
hemolysis [21]: < 1%
MIC (Acinetobacter baumannii [22]): 20 µg/mL
MIC (Acinetobacter baumannii [23]): 5 µg/mL
survival at 1.25 mg/kg (Acinetobacter baumannii [24]): 40%
Activity [25]: Non-toxic
metabolised at 20 min (proteinase K [32]): 89.4%
Activity (Cell membrane [33]): Active
MIC (Acinetobacter baumannii [26]): 10 µg/mL

H-KRIVKRIKRFLR-OH
MIC (Acinetobacter baumannii [1]): 80 µg/mL
MIC (Acinetobacter baumannii [10]): 80 µg/mL
MIC (Staphylococcus aureus [14]): > 320 µg/mL
MIC (Staphylococcus aureus [17]): > 320 µg/mL
